The record followed here is patent US9937133B2, “Treatment of fibrosis” (UCL BUSINESS PLC, priority 2014, dated 2018).

Type in all cases: cell-based, human
Experiment [1] deals with F-PemI and F-PemU fibroblasts. Briefly: Alpha-smooth muscle actin alignment under a stressed matrix. An excerpt: Finally to have an indication of the differentiation capacity of F-PemI and F-PemU fibroblasts, their expression and alignment of alpha-smooth muscle actin under a stressed matrix was investigated. F-PemI and F-PemU lack the ability to align their alpha-smooth muscle actin into stress fibers when compared to F-C fibroblasts. The diminished alignment of alpha-smooth muscle actin was similar in both F-PemI and F-PemU fibroblasts.
To elucidate whether ALDH1A3 is contributing to this impaired alignment of alpha-smooth muscle actin in F-PemI and F-PemU fibroblasts, their alpha-smooth muscle actin alignment was imaged after being treated with DEAB and disulfiram.

The subject of experiment [2] is F-PemI and F-PemU fibroblasts. Briefly: Collagen production of OcMMP fibroblasts after ALDH inhibition (collagen type I competitive ELISA). Here is the method:
To investigate whether there was differential matrix production in OcMMP, primary conjunctival fibroblasts explanted from conjunctival tissue samples from OcMMP patients with (F-PemI) and without (F-PemU) and control (F-C) patients were analysed for their matrix production and secretion (see FIG. 2A).
To ascertain whether this enhanced collagen production was mediated by ALDH1A3, the collagen production profiles of F-PemI, F-PemU and F-C fibroblasts were assessed after ALDH inhibition with DEAB or disulfiram (see FIGS. 2B to 2E, where “+” and “−” indicate the presence or absence of DEAB/disulfiram respectively).
A competitive ELISA (MD Bioproducts, Zurich, Germany) method was used to quantify the matrix production from a monolayer of F-C, F-PemU and F-PemI fibroblasts. The competitive assay is a colormetric based immunoassay utilises a biotinylated polyclonal antibody to Collagen Type I and purified human collagen type I as an antigen. […]
Each experiment was carried out per manufacturer's instructions and performed with at least 4 experimental repeats and 3 biological repeats. […] Another method that has been noted for quantifying the level of collagen production in OcMMP fibroblasts is Q-PCR quantification of collagen type 1 mRNA expression post TGF-β induction (Razzaque et al., 2003, Investigative ophthalmology and visual science, 44: 3417-3423, 1616-1621 and 1998-2003). […]

Experiment [3] has as its system F-PemI and F-PemU fibroblasts. The experiment is described as follows: Proliferation of OcMMP fibroblasts after ALDH inhibition. Here is the method: The proliferative capacity of F-PemI, F-PemU and F-C fibroblasts was also assessed. […] The proliferative capacities of F-PemI and F-PemU were similar (see FIG. 4A).
To find out whether ALDH1A3 also mediates this anti-proliferative phenotype we monitored the proliferation of F-PemI, F-PemU and F-C fibroblasts after addition of DEAB or disulfiram.

The test system of experiment [4] is F-PemI and F-PemU fibroblasts. The experiment is described as follows: Matrix contraction by OcMMP fibroblasts after ALDH inhibition. An excerpt: (§1) Next the ability of F-PemI and F-PemU fibroblasts to organise matrix through matrix contraction was investigated. […] This diminished contractile profile was similar in F-PemI and F-PemU fibroblasts.
(§2) To find out whether ALDH1A3 was also contributing to this phenotypic contractility we looked at the contractile profiles of F-PemI, F-PemU and F-C fibroblasts after DEAB or disulfiram ALDH inhibition.

A further experiment has as its system F-C fibroblasts. Briefly: Matrix contraction by control fibroblasts after ALDH inhibition.
Text: as §1, §2

Molecules are shown by their SMILES. Like-named read-outs stand apart in the source and are kept apart here.

As to `CCN(CC)c1ccc(C=O)cc1` [DEAB, 4-(diethylamino)benzaldehyde], in experiment [1], the “alignment of alpha-smooth muscle actin in F-PemI and F-PemU fibroblasts” value is on record as “markedly improved the alignment”. For the same molecule, the “F-PemI and F-PemU fibroblast collagen production” value in experiment [2] (10^−7M) is “brought down to control cell levels”; in experiment [2] (increasing concentrations) it was “dose dependent and significant decrease”. Further, the “proliferation of F-PemI and F-PemU fibroblasts” value in experiment [3] is “proliferating at a significantly enhanced rate”; in experiment [3] (lowest concentration of 10^−7M), “proliferated at similar level to F-C fibroblasts”. Also, the “contractility of F-PemI and F-PemU fibroblasts” value in experiment [4] (increasing concentrations) was “increased the contractility of F-PemI and F-PemU fibroblasts in a dose dependent manner”. For the same molecule, the “contraction of F-PemI and F-PemU fibroblasts” value in experiment [4] (lowest concentration of 10^−7M) is “control cell levels of contraction”. In addition, in the experiment with F-C fibroblasts, the “contractile profile of F-C fibroblasts” value was “did not have any significant effects”.
